Test results from US20260327243A1, “SPIRO-HETEROCYCLIC INHIBITORS OF KRAS G12C MUTANT PROTEINS AND USES THEREOF” (AMGEN INC., priority 2023, published 2026).
pIC50: −log10 of the molar value.

Assays:
A549 cells = test: Cell Viability Assay, A549; format: cell-based; settings: human lung carcinoma, 72 h, CellTiter-Glo
Method: (§1) MIA PaCa-2 (human pancreatic carcinoma; ATCC CRL-1420) or A549 (human lung carcinoma; ATCC CCL-185) cells were cultured in RPMI 1640 medium containing 10% fetal bovine serum and 1×penicillin/streptomycin/L-glutamine. Cells were seeded in 384-well plates at a density of 1.67E+04 cells/mL and incubated at 37° C., 5% CO2, overnight. Serially-diluted compound or DMSO was added to the cells, and plates were incubated at 37° C., 5% CO2 for 72 h. Cell viability was measured using a CellTiter-Glo® Luminescent Cell Viability Assay kit (Promega) according to the manufacturer's protocol. The luminescence signal of treated samples was normalized to DMSO control, and data were analyzed using a 4-parameter logistic model to calculate IC50 values.
(§2) The following data (Table 3) categorizes the IC50 of each compound for inhibiting enzymatic activity of KRAS^G12C in the indicated cells.

KRAS^G12C = KRAS^G12C (Homo sapiens, UniProt P01116, C118A/G12C); test: Coupled Nucleotide Exchange Assay; format: biochemical; settings: GDP-bound KRAS (aa 1-169) G12C/C118A; 2 h compound pre-incubation; SOS-mediated exchange, 30 min; cRAF binding (AlphaLISA)
Method: The KRAS^G12C coupled nucleotide exchange assay allows for the screening and profiling of KRAS^G12C antagonists/inhibitors by monitoring the binding of an effector protein (e.g., a Ras binding domain of Raf1, RBD-cRaf) to KRAS^G12C. Purified GDP-bound KRAS protein (aa 1-169), containing both G12C and C118A amino acid substitutions and an N-terminal His-tag, was pre-incubated in assay buffer (25 mM HEPES pH 7.4, 10 mM MgCl2, 0.01% Triton X-100, either with or without 0.1% BSA) with serially diluted compound for 2 h. For all subsequent steps, BSA was omitted and DTT was added to the reaction buffer at a final concentration of 1 mM. Following compound pre-incubation, purified SOS protein (aa 564-1049) and GTP (Roche 10106399001) were added to the assay wells and incubated for an additional 30 min. To determine the extent of inhibition of SOS-mediated nucleotide exchange, purified GST-tagged cRAF (aa 1-149), nickel chelate AlphaLISA acceptor beads (PerkinElmer AL108R), and AlphaScreen glutathione donor beads (PerkinElmer 6765302) were added to the assay wells and incubated for 5-30 min. The assay plates were then read on a plate reader measuring luminescence signal. Signal intensity of compound-containing wells were normalized to DMSO control, and data were analyzed using a 4-parameter logistic model to calculate IC50 values.

MIA PaCa-2 cells = test: Cell Viability Assay, MIA PaCa-2; format: cell-based; settings: human pancreatic carcinoma, CellTiter-Glo
Method: as §1, §2

Sequence of KRAS^G12C (P01116 1-169 isoform P01116-2 G12C/C118A): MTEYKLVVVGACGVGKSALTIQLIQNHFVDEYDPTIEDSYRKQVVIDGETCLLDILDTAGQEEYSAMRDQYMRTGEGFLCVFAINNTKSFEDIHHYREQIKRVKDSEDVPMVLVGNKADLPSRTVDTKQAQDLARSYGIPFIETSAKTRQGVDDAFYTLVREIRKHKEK

pIC50 (KRAS^G12C)	pIC50 (MIA PaCa-2 cells; Homo sapiens, MIA PaCa-2, 72 h)	SMILES	other results
6.74	6.20	C=CC(=O)N1CCN([C@@H]2CN(c3cc(N4CCC5(C[C@H]4C)OCC=C5C)nc(C(F)(F)F)n3)[C@@H]2C)CC1 (stereo partly drawn) [Compound 3-005, 1-(4-((2R,3R)-1-(6-(4.7-dimethyl-1-oxa-8-azaspiro[4.5]dec-3-en-8-yl)-2-(trifluoromethyl)pyr-imidin-4-yl)-2-methylazetidin-3-yl)piperazin-1-yl)prop-2-en-1-one]	pIC50 (A549 cells; A549): < 5.30
6.01	< 5.30	C=CC(=O)N1CCN(C2CN(c3cc(N4CCC5(CCC(=O)N5)CC4)nc(C(F)(F)F)c3C#N)C2)CC1 [Compound 3-016]	pIC50 (A549 cells; A549): < 5.30
6.12	–	C=CC(=O)N1CCN(C2CN(c3cc(N4CCC5(CC4)OC(C)C=C5Cl)nc(C(F)(F)F)c3C#N)C2)CC1 (centres unmarked) [Compound 3-065, 4-(3-(4-Acryloylpiperazin-1-yl)azetidin-1-yl)-6-(4-chloro-2-methyl-1-oxa-8-azaspiro[4.5]dec-3-en-8-yl)-2-(trifluoromethyl)nicotinonitrile]	–
5.48	–	C=CC(=O)N1CCN(C2CN(c3cc(N4CCC5(CC4)CC(F)(F)CO5)nc(C(F)(F)F)c3C#N)C2)CC1 [Compound 3-044, 4-(3-(4-acryloylpiperazin-1-yl)azetidin-1-yl)-6-(3,3-difluoro-1-oxa-8-azaspiro[4.5]decan-8-yl)-2-(trifluoromethyl)nicotinonitrile]	–
6.05	–	C=CC(=O)N1CCN([C@@H]2CN(c3cc(N4CCC5(CC4)OCCC=C5C)nc(C(F)F)n3)[C@@H]2C)CC1 [Compound 3-009, 1-(4-((2R,3R)-1-(2-(difluorometh-yl)-6-(5-methyl-1-oxa-9-azaspiro [5.5]undec-4-en-9-yl)-pyrimidin-4-yl)-2-methylazetidin-3-yl)piper-azin-1-yl)prop-2-en-1-one]	–
5.85	–	C=CC(=O)N1CCN(C2CN(c3cc(N4CCC5(C=CCO5)CC4)nc(C(F)F)c3C)C2)CC1 [Compound 3-070, 1-(4-(1-(2-(difluoromethyl)-3-methyl-6-(1-oxa-8-azaspiro[4.5]dec-3-en-8-yl)pyridin-4-yl)azetidin-3-yl)piperazin-1-yl)prop-2-en-1-one]	–
5.03	–	C=CC(=O)N1CCN(C2CN(c3cc(N4CCC5(CC4)OCCC5=O)nc(C(F)(F)F)c3C#N)C2)CC1 [Compound 3-031, 4-(3-(4-acryloylpiperazin-1-yl)azetidin-1-yl)-6-(4-oxo-1-oxa-8-azaspiro[4.5]decan-8-yl)-2-(trifluoromethyl)nicotinonitrile]	–
5.21	–	C=CC(=O)N1CCN(C2(C)CN(c3cc(N4CCC5(CC4)OCc4ccccc45)nc(C(F)(F)F)n3)C2)CC1 [Compound 3-027, 1-(4-(1-(6-(3H-spiro[isobenzofuran-1.4′-piperidin]-1′-yl)-2-(trifluoromethyl)pyrimidin-4-yl)-3-methylazetidin-3-yl)piperazin-1-yl)prop-2-en-1-one]	–
6.45	–	C=CC(=O)N1CCN([C@@H]2CN(c3cc(N4CCC5(CC4)OCc4nccc(C)c45)nc(C(F)F)n3)[C@@H]2C)CC1 [Compound 3-080]	–
5.02	–	C=CC(=O)N1CCN(C2CN(c3cc(N4CCC5(CC4)CC(C#N)CO5)nc(C(F)(F)F)c3C#N)C2)CC1 (centres unmarked) [Compound 3-030, 8-(4-(3-(4-acryloylpiperazin-1-yl)azetidin-1-yl)-5-cyano-6-(trifluoromethyl)pyridin-2-yl)-1-oxa-8-azaspiro[4.5]decane-3-carbonitrile]	–
5.54	–	C=CC(=O)N1CCN([C@@H]2CN(c3cc(N4CCC5(CC4)COc4nccc(C)c45)nc(C(F)F)n3)[C@@H]2C)CC1 [Compound 3-086, 1-(4-((2R,3R)-1-(2-(difluoromethyl)-6-(4-methyl-2H-spiro[furo[2.3-b]pyridine-3,4′-piperidin]-1′-yl)pyrimidin-4-yl)-2-methylazetidin-3-yl)piperazin-1-yl)prop-2-en-1-one]	–

Second part, the compound before the results:

SMILES	pIC50 (KRAS^G12C)	pIC50 (MIA PaCa-2 cells; Homo sapiens, MIA PaCa-2, 72 h)	other results
C=CC(=O)N1CCN(C2CN(c3cc(N4CCC5(CC4)OC(C)C=C5C)nc(C(F)(F)F)c3C#N)C2)CC1 (single isomer, unassigned) [Compound 3-054-2]	6.42	–	pIC50 (A549 cells): < 5.30; pIC50 (MIA PaCa-2 cells; 72 h): 5.83
C=CC(=O)N1CCN(C2CN(c3cc(N4CCC5(CC4)CC(Br)=NO5)nc(C(F)(F)F)c3C#N)C2)CC1 [Compound 3-017, 4-(3-(4-acryloylpiperazin-1-yl)-azetidin-1-yl)-6-(3-bromo-1-oxa-2.8-diazaspiro[4.5]dec-2-en-8-yl)-2-(trifluoromethyl)nicotinonitrile]	6.08	5.70	pIC50 (A549 cells; A549): < 5.30
C=CC(=O)N1CCN([C@@H]2CN(c3cc(N4CCC5(CC4)OCC(COC)n4ncc(C)c45)nc(C(F)(F)F)n3)[C@@H]2C)CC1 (stereo partly drawn) [Compound 3-082, 1-(4-((2R,3R)-1-(6-(7′-(methoxymethyl)-3′-methyl-6′,7′-dihydrospiro[piperidine-4,4′-pyrazolo[5,1-c][1,4]oxazin]-1-yl)-2-(trifluoromethyl)pyrimidin-4-yl)-2-methylazetidin-3-yl)piperazin-1-yl)prop-2-en-1-one]	7.16	6.84	pIC50 (A549 cells; A549): < 5.30
C=CC(=O)N1CCN([C@@H]2CN(c3cc(N4CC[C@]5(C[C@H]4C)OC[C@@H](CO)n4ncc(C)c45)nc(C(F)F)n3)[C@@H]2C)CC1 (single isomer, unassigned) [Compound 3-088-1]	6.97	6.72	pIC50 (A549 cells; A549): < 5.30
C=CC(=O)N1CCN([C@@H]2CN(c3cc(N4CCC5(CC4)OCCc4nccc(C)c45)nc(C(F)(F)F)n3)[C@@H]2C)CC1 [Compound 3-085, 1-(4-((2R,3R)-2-methyl-1-(6-(4′-methyl-7′,8′-dihydrospiro[piperidine-4,5′-pyrano[4,3-b]pyridin]-1-yl)-2-(trifluoromethyl)pyrimidin-4-yl)azetidin-3-yl)piperazin-1-yl)prop-2-en-1-one]	–	–	pIC50 (A549 cells): < 5.30; pIC50 (MIA PaCa-2 cells; 72 h): 6.74
C=CC(=O)N1CCN([C@@H]2CN(c3cc(N4CC[C@]5(C[C@H]4C)OCCn4ncc(C)c45)nc(C(F)(F)F)n3)[C@@H]2C)CC1 [Compound 3-077, 1-(4-((2R,3R)-1-(6-((2R,4R)-2,3′-dimethyl-6′,7′-dihydro-1H-spiro[piperidine-4,4′-pyrazolo[5,1-c][1,4]oxazin]-1-yl)-2-(trifluoromethyl)-4-pyrimidinyl)-2-methyl-3-azetidinyl)-1-piperazinyl)-2-propen-1-one]	7.68	6.74	pIC50 (A549 cells; A549): < 5.30
C=CC(=O)N1CCN(C2CN(c3cc(N4CCC5(C=CCOC5)CC4)nc(C(F)F)c3C)C2)CC1 [Compound 3-072, 1-(4-(1-(2-(difluoromethyl)-3-methyl-6-(2-oxa-9-azaspiro[5.5]undec-4-en-9-yl)pyridin-4-yl)azetidin-3-yl)piperazin-1-yl)prop-2-en-1-one]	5.31	–	–
C=CC(=O)N1CCN([C@@H]2CN(c3cc(N4CCC5(CC4)OCCC=C5C)nc(C(F)(F)F)n3)[C@@H]2C)CC1 [Compound 3-008, 1-(4-((2R.3R)-2-methyl-1-(6-(5-methyl-1-oxa-9-azaspiro[5.5]undec-4-en-9-yl)-2-(trifluorometh-yl)pyrimidin-4-yl)azetidin-3-yl)-piperazin-1-yl)prop-2-en-1-one]	6.56	6.20	–
C=CC(=O)N1CCN(C2CN(c3cc(N4CCC5(CC4)COc4ccccc45)nc(C(F)(F)F)n3)C2)CC1 [Compound 3-018, 1-(4-(1-(6-(2H-spiro[benzofuran-3,4′-piperidin]-1′-yl)-2-(trifluoro-methyl)pyrimidin-4-yl)azetidin-3-yl)piperazin-1-yl)prop-2-en-1-one]	5.70	–	–
C=CC(=O)N1CCN(C2CN(c3cc(N4CCC5(CC4)OCC4CC45)nc(C(F)(F)F)c3C#N)C2)CC1 (centres unmarked) [Compound 3-042, 4-(3-(4-acryloylpiperazin-1-yl)azetidin-1-yl)-6-(3-oxaspiro[bicyclo[3.1.0]hexane-2,4′-piperidin]-1′-yl)-2-(trifluoromethyl)nicotinonitrile]	5.29	–	–
C=CC(=O)N1CCN([C@@H]2CN(c3cc(N4CCC5(CC4)COc4nccc(C)c45)nc(C(F)(F)F)n3)[C@@H]2C)CC1 [Compound 3-092, 1-(4-((2R,3R)-2-methyl-1-(6-(4-methyl-1′H-spiro[furo[2,3-b]pyridine-3,4′-piperidin]-1′-yl)-2-(trifluoromethyl)-4-pyrimidinyl)-3-azetidinyl)-1-piperazinyl)-2-propen-1-one]	5.62	–	–
